Laboratory results published in the OPERA property sets (Mansouri et al. 2018).

Settings: for log10 biotransformation half-life (days) / log10 BCF: fish

With `OCc1ccccc1` as the molecule, how does the boiling point read?
Its boiling point is 205 °C.

And the log10 Henry constant (atm·m³/mol)?
Its log10 Henry constant (atm·m³/mol) is -6.47.

And the log10 Koc (L/kg)?
The log10 Koc (L/kg) was 1.1.

And the log10 vapour pressure (mmHg)?
The log10 vapour pressure (mmHg) was -1.03.

What about the melting point of the same molecule?
The melting point was -15.2 °C.

And the ready biodegradability?
Its ready biodegradability is “readily biodegradable”.

Which melting point does the source give for `CCOC(=O)CSCCC1NC(C(=O)O)CS1` (stereo not given) here?
The melting point was 142 °C.

Which melting point does the source give for `BrCc1ccccc1CBr` here?
Its melting point is 95 °C.

For `C#CCCC#C`, which boiling point is on record?
The boiling point was 86 °C.

What about the melting point of the same molecule?
Its melting point is -6 °C.

Which log10 Koc (L/kg) does the source give for `COC(=O)c1cc(Cl)cc(N)c1Cl` here?
Its log10 Koc (L/kg) is 2.74.

Which melting point does the source give for `O=C(O)c1cc(S(=O)(=O)O)ccc1O` here?
The melting point was 120 °C.

For `CC(C)(C)[C@H](O)/C(=C\c1ccc(Cl)cc1)n1cncn1`, which melting point is on record?
Its melting point is 153 °C.

Which results are given for `CC1=C(C)CCCC1`?
boiling point: 138 °C; melting point: -84.1 °C

Which melting point does the source give for `CC(=O)Nc1ccc(S(=O)(=O)Nc2ccc([N+](=O)[O-])cc2)cc1` here?
Its melting point is 240 °C.

Which melting point does the source give for `Cc1cccc2c1ccc1c3ccccc3ccc21` here?
The melting point was 256 °C.

For `CC(C)C1CC=C(C=O)CC1` (stereo not given), which boiling point is on record?
Its boiling point is 223 °C.

With `O=C1CCO1` as the molecule, how does the boiling point read?
The boiling point was 162 °C.

And the melting point?
Its melting point is -33.4 °C.

What about the ready biodegradability of the same molecule?
The ready biodegradability was “readily biodegradable”.

For `Cc1cncnc1`, which boiling point is on record?
The boiling point was 153 °C.

And the melting point?
The melting point was 30.5 °C.

With `C1=Cc2cc3ccc(cc4nc(cc5ccc(cc1n2)[nH]5)C=C4)[nH]3` as the molecule, how does the melting point read?
The melting point was 360 °C.

Which boiling point does the source give for `OCCCCC(F)(F)F` here?
Its boiling point is 148 °C.

What does the source list for `Cc1ccc(N)nc1`?
boiling point: 227 °C; melting point: 76.5 °C

Which melting point does the source give for `NCCC(=O)N[C@@H](Cc1c[nH]cn1)C(=O)O` here?
Its melting point is 260 °C.

With `FCCCBr` as the molecule, how does the boiling point read?
The boiling point was 101 °C.

With `C=CCCCCCCCCC` as the molecule, how does the boiling point read?
Its boiling point is 193 °C.

And the log10 vapour pressure (mmHg)?
Its log10 vapour pressure (mmHg) is -0.307.

And the melting point?
Its melting point is -49.2 °C.

And the log10 biotransformation half-life (days)?
The log10 biotransformation half-life (days) was 0.09.

For `CCCCc1ccc(N)cc1`, which boiling point is on record?
The boiling point was 261 °C.

Which melting point does the source give for `CCOC(=O)c1cncn1C(C)c1ccccc1` (stereo not given) here?
The melting point was 67 °C.

With `CC(=O)Nc1ccc(S(N)(=O)=O)cc1` as the molecule, how does the melting point read?
Its melting point is 220 °C.

For `CCC1CCCC1`, which boiling point is on record?
Its boiling point is 104 °C.

What about the log10 biodegradation half-life (days) of the same molecule?
Its log10 biodegradation half-life (days) is 1.18.

What about the log10 vapour pressure (mmHg) of the same molecule?
Its log10 vapour pressure (mmHg) is 1.6.

And the melting point?
Its melting point is -138 °C.

For `O=C(c1ccc(O)cc1)c1ccc(O)cc1`, which melting point is on record?
The melting point was 210 °C.

Which boiling point does the source give for `C=C(C)c1cccc(C(=C)C)c1` here?
Its boiling point is 231 °C.

With `CC(CO)(CO)[N+](=O)[O-]` as the molecule, how does the melting point read?
The melting point was 150 °C.

Which boiling point does the source give for `CCCCCCCC(=O)CC` here?
Its boiling point is 203 °C.

What about the melting point of the same molecule?
The melting point was 2.5 °C.

For `CCCCCCCCCCCCCOC(=O)c1ccccc1C(=O)OCCCCCCCCCCCCC`, which ready biodegradability is on record?
Its ready biodegradability is “not readily biodegradable”.

For `C=Cc1ccc(F)cc1`, which melting point is on record?
Its melting point is -34.5 °C.

Which results are given for `CCCCCOCCCCC`?
boiling point: 190 °C; log10 Koa: 4.8; log10 vapour pressure (mmHg): -0.067; melting point: -69 °C

For `CCCCOC(=O)CC#N`, which boiling point is on record?
Its boiling point is 231 °C.

Which boiling point does the source give for `Cc1cccc(C)c1Cl` here?
The boiling point was 186 °C.

What about the melting point of the same molecule?
Its melting point is -35 °C.

With `CCN(CC)CN(CC)CC` as the molecule, how does the boiling point read?
The boiling point was 166 °C.

With `CCCCCCC(=O)CCCC` as the molecule, how does the boiling point read?
The boiling point was 227 °C.

What about the melting point of the same molecule?
Its melting point is 2 °C.

With `O=C(O)CNC(=O)c1ccccc1` as the molecule, how does the melting point read?
The melting point was 192 °C.

What about the ready biodegradability of the same molecule?
The ready biodegradability was “readily biodegradable”.

Which results are given for `CN(C=O)c1ccccc1`?
boiling point: 243 °C; melting point: 14.5 °C

For `Clc1ccc(Cl)c(-c2ccccc2)c1`, which log10 Henry constant (atm·m³/mol) is on record?
Its log10 Henry constant (atm·m³/mol) is -3.55.

What about the log10 vapour pressure (mmHg) of the same molecule?
Its log10 vapour pressure (mmHg) is -2.86.

And the log10 BCF?
The log10 BCF was 3.98.

What about the log10 biotransformation half-life (days) of the same molecule?
The log10 biotransformation half-life (days) was 2.38.

With `CCN(CC)Cc1cccnc1` as the molecule, how does the log10 vapour pressure (mmHg) read?
Its log10 vapour pressure (mmHg) is -2.37.

Which boiling point does the source give for `CN1CCOCC1` here?
Its boiling point is 116 °C.

For `C=CC=C(C)C`, which boiling point is on record?
The boiling point was 76.5 °C.

Which log10 Henry constant (atm·m³/mol) does the source give for `Clc1ccc(-c2cc(Cl)c(Cl)cc2Cl)c(Cl)c1` here?
The log10 Henry constant (atm·m³/mol) was -4.11.

What about the log10 vapour pressure (mmHg) of the same molecule?
The log10 vapour pressure (mmHg) was -4.66.

What about the log10 biotransformation half-life (days) of the same molecule?
The log10 biotransformation half-life (days) was 2.73.

For `CC(=O)c1ccccc1[N+](=O)[O-]`, which melting point is on record?
The melting point was 28.5 °C.

Which results are given for `COC(=O)CCCCCCC(=O)OC`?
boiling point: 268 °C; melting point: -3.1 °C

What does the source list for `O=S(=O)(O)c1ccccc1`?
melting point: 65 °C; ready biodegradability: readily biodegradable

With `Cc1ccc2c(c1C)CCCC2` as the molecule, how does the boiling point read?
Its boiling point is 252 °C.

Which results are given for `C/C(Cl)=C/C(=O)O`?
boiling point: 195 °C; melting point: 61 °C

For `N#CCCNc1ccccc1`, which melting point is on record?
The melting point was 52.5 °C.

Which melting point does the source give for `CCCCCCCCCCCCNC(=O)C[N+](C)(C)Cc1ccccc1.[Cl-]` here?
The melting point was 148 °C.

For `CC1=CCC2C(C)(C)CCC[C@]2(C)[C@@]12CC[C@](C)(CC(=O)O)O2` (stereo not given in full), which melting point is on record?
The melting point was 100 °C.

For `COC(=O)c1cccc([N+](=O)[O-])c1`, which melting point is on record?
Its melting point is 78 °C.

Which melting point does the source give for `CC(C)(C)NCC(O)COc1ccccc1C#N` (stereo not given) here?
The melting point was 164 °C.

With `CCCCCOC(=O)c1ccccc1O` as the molecule, how does the boiling point read?
The boiling point was 270 °C.

Which results are given for `FC(F)(F)CCCl`?
boiling point: 45.1 °C; melting point: -106 °C

For `CC(C)(C(N)=O)n1nnc2ccccc21`, which melting point is on record?
The melting point was 187 °C.

For `Oc1ccc2ccccc2c1Br`, which melting point is on record?
The melting point was 84 °C.

Which melting point does the source give for `N#CC(O)C(Cl)(Cl)Cl` (stereo not given) here?
Its melting point is 61 °C.

For `CC[C@H]1CC[C@H](C)NC1`, which log10 vapour pressure (mmHg) is on record?
Its log10 vapour pressure (mmHg) is 0.458.

For `CCC(C)(C)I`, which boiling point is on record?
Its boiling point is 124 °C.

Which results are given for `O=C1OC(c2ccc(O)cc2)(c2ccc(O)cc2)c2ccccc21`?
melting point: 262 °C; ready biodegradability: not readily biodegradable

For `N=C(N)NC(=O)c1nc(Cl)c(N)nc1N`, which melting point is on record?
Its melting point is 241 °C.

Which melting point does the source give for `O=c1cc(O)cc[nH]1` here?
Its melting point is 278 °C.

Which results are given for `CCNc1ccc(C)cc1`?
boiling point: 217 °C; ready biodegradability: not readily biodegradable; log10 BCF: 0.61

With `C1CCCNCCC1` as the molecule, how does the melting point read?
Its melting point is 29 °C.

Which boiling point does the source give for `O=C=NC1CCCCC1` here?
Its boiling point is 172 °C.

And the log10 vapour pressure (mmHg)?
The log10 vapour pressure (mmHg) was 0.0086.

What about the melting point of the same molecule?
Its melting point is -80 °C.

For `O=c1oc2ccccc2c(O)c1Cc1c(O)c2ccccc2oc1=O`, which melting point is on record?
The melting point was 290 °C.

With `Cc1nnc2n1-c1sc(Br)cc1C(c1ccccc1Cl)=NC2` as the molecule, how does the melting point read?
The melting point was 213 °C.

For `OCCN1CCN(CCO)CC1`, which melting point is on record?
The melting point was 135 °C.

With `CCCC(C)C1(CC)C(=O)N=C(O)NC1=O` (stereo not given) as the molecule, how does the melting point read?
Its melting point is 130 °C.

Which boiling point does the source give for `CCCCC(C)C(C)C` (stereo not given) here?
Its boiling point is 140 °C.

And the melting point?
Its melting point is -116 °C.

What about the log10 biotransformation half-life (days) of the same molecule?
The log10 biotransformation half-life (days) was 1.28.
